Results taken from US4226610A, “Herbicidal compounds, preparation thereof and herbicides containing the same” (Meiji Selka Kaisha, Ltd., priority 1978, dated 1980).
Values after ≈ are worked out from the molar mass of the structure shown.

Tests used:
hedge bindweed = assay: Experiment 1 foliar application to naturally growing weeds; assay type: in vivo, Calystegis hederacea Wall.; conditions: 4 months
Method in brief: (§1)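 Read-outs were a 0–5 killing index at 21 days and a reproduction score from (-), no reproduction, to (+++), no suppression. Reproduction was read at 2 months for cockspar grass and 4 months for the other species, after foliar spraying at 150 liter per 10 are with 0.1% surfactant.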

urikawa = assay: Experiment 6 spray on aquatic plants in concrete pots; assay type: in vivo, Sagittaria pygmaea Miguel; conditions: 3 months
Description: (§2) The detail of the assessment made in the following Experiments of the invention was as follows:
(§3) Four months after treatment, evaluation was made for inhibition of reproduction expressed in terms of symbols ranging from (-) to (+++) where (-) means no reproduction, namely complete suppression of reproduction, (±) remarkable suppression of reproduction; (+) considerable suppression of reproduction; (++) medium supprestion of reproduction; and (+++) no suppression of reproduction.
(§4) A paddy field soil was packed in 50 cm. square concrete pots. omodaka (Sagittaria trifolia L.), urikawa (Sagittaria pygmaea Miq.), prog-bit (Hydrocharis dubia) and aginashi (Sagittaria Aginashi Makino) were transplanted; then water was poured onto the soil at 5 cm. depth.
(§5) Further, water hyacinth, greater-duckweed (Spirodela polyrhiza Schleid.) and duckweed (Lemna paucicostata Hegelm) were floated on the water.
(§6) After one month, the compounds of the invention diluted to the prescribed concentrations as indicated in Table 8 were sprayed in an amount of 100 liter per 10 are. As a surfactant, 0.1% of octylphenyl polyoxyethanol was added thereto.
(§7) The killing index (0, no effect; 5, death) after 21 days and 3 months and the reproduction-inhibiting effect (-, no reproduction; +++, maximum reproduction) after 3 months were determined.

lace shrub = assay: Experiment 3 foliar application to naturally growing shrubs; assay type: in vivo, Stephanandra incisa Zabel
Method in brief: (§8)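 Sprays contained 0.1% octylphenyl polyoxyethanol and compound diluted to prescribed concentrations. They were applied to the leaves of wild shrubs at a rate of 150 liter per 10 are. Damage was rated 0–5 after one and three months, and regrowth − to +++ after three months.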

Japanese bush cranberry = assay: as above; assay type: in vivo, Viburnum dilatatum Thunb.; conditions: after 3 months
Method in brief: as §8

aginashi = assay: Experiment 6 spray on aquatic plants in concrete pots; assay type: in vivo, Sagittaria Aginashi Makino; conditions: 3 months
Description: as §2, §3, §4, §5, §6, §7

azumanezasa = assay: Experiment 1 foliar application to naturally growing weeds; assay type: in vivo, Pleioblastus Chino Makino; conditions: for Reproduction-inhibiting effect: 4 months; for Killing index of Upperground parts: 21 days
Method in brief: as §1

eulalia = assay: Experiment 2 foliar application in Japanese cypress afforested land; assay type: in vivo, Miscanthus sinensis Andress.; parameters: key: 0 = no effect, 5 = death; conditions: after 3 months
Method in brief: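 Field foliar spray on shrubs in Japanese cypress afforested land at 150 liter per 10 are, with compounds at prescribed concentrations. Killing index scored from 0 (no effect) to 5 (death) at 30 days and 3 months. Plant heights ranged from about 50 to 100 cm.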

stonewort = assay: Experiment 7 application to water; assay type: in vivo, Chara Braunii Gmel.; parameters: scale not given here
Description: A black soil was packed in 50 cm. square concrete pots and water was poured there-onto at 50 cm. in depth. Hornwort (Ceratophyllum demersum L.), stonewort (Chara Braunii Gmel.) and salvinia (Salvinia natans All.) were transplanted and pond scum (Spirogira crassa Kutz) and diatoms (Bacillariophyta) were floated in the water.
Then, the compounds of the invention were applied dropwise onto the surface of the water so that the prescribed concentrations in the water are obtained as indicated in Table 9.

water hyacinth = assay: Experiment 5 foliar application to water hyacinths; assay type: in vivo, Eichhornia crassipes Solms; conditions: 3 months
Method in brief: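 Two plants floated in fertilized water per vessel, sprayed foliarly with 0.1 or 0.2% aqueous compound solutions at 100 liter per 10 are plus 0.1% octylphenyl polyoxyethanol. Killing index (0 no effect to 5 death) scored at 21 days and 3 months; reproduction inhibition scored (-) to (+++) at 3 months.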

yabugarashi = assay: Experiment 1 foliar application to naturally growing weeds; assay type: in vivo, Cayratia japonica Houtt.; conditions: for Reproduction-inhibiting effect: 4 months
Method in brief: as §1

duckweed = assay: Experiment 6 spray on aquatic plants in concrete pots; assay type: in vivo, Lemna paucicostata Hegelm; conditions: for Reproduction-inhibiting effect: 3 months
Description: as §2, §3, §4, §5, §6, §7

weeds and shrubs = assay: Weeding effects, general statements; assay type: in vivo; conditions: as shown in Experiment 1
chestnut = assay: Experiment 2 foliar application in Japanese cypress afforested land; assay type: in vivo, Castanea crenata Sieb et Zucc.; conditions: 0.063%; after 30 days
Protocol: as §2
The compounds of the invention and other compounds listed in Table 4. were diluted to prescribed concentrations and sprayed to shrubs by foliar application in a Japanese cypress afforested land in an amount of 150 liter per 10 are.
After 30 days and 3 months, the killing index (0, no effect; 5, death) was determined.
The heights of plants were 50-70 cm. for Japanese cypress, about 50 cm. for chestnut, 50-90 cm. for miyakozasa, about 100 cm. for eulalia and 70-100 cm. for kumaichigo, respectively.

Solubility (Table 1) = conditions: ethanol, organic solvent or mixture

SMILES	Reproduction-inhibiting effect (hedge bindweed; 0.05%)	Reproduction-inhibiting effect (hedge bindweed; 0.1%)	Reproduction-inhibiting effect (hedge bindweed; 0.2%)	Reproduction-inhibiting effect (urikawa; 0.05%)	Reproduction-inhibiting effect (urikawa; 0.1%)	Reproduction-inhibiting effect (urikawa; 0.2%)	Reproduction-inhibiting (lace shrub; 0.05%, after 3 months)	Reproduction-inhibiting (lace shrub; 0.1%, after 3 months)	Reproduction-inhibiting (lace shrub; 0.2%, after 3 months)	Reproduction-inhibiting (Japanese bush cranberry; 0.05%)	Reproduction-inhibiting (Japanese bush cranberry; 0.1%)	Reproduction-inhibiting (Japanese bush cranberry; 0.2%)	Reproduction-inhibiting effect (aginashi; 0.05%)	Reproduction-inhibiting effect (aginashi; 0.1%)	Reproduction-inhibiting effect (aginashi; 0.2%)	Reproduction-inhibiting effect (azumanezasa; 0.05%)	Reproduction-inhibiting effect (azumanezasa; 0.1%)	Reproduction-inhibiting effect (azumanezasa; 0.2%)	controlling effect (stonewort; 1 ppm, 3 months)	controlling effect (stonewort; 1 ppm, 21 days)	further results
CP(=O)(O)CCC(N)C(=O)O (racemic) [DL-AMPB choline]	++	±	-	++	+	-	++	-	-	+++	++	+	++	±	-	++	±	-	1	3	Killing index of Upperground parts (azumanezasa; 0.05%): 1.5; Killing index of Upperground parts (azumanezasa; 0.1%): 3.5; Killing index (eulalia; 0.125%): 4.5; controlling effect (stonewort; 3 ppm, 3 months): 5; controlling effect (stonewort; 3 ppm, 21 days): 4.5; controlling effect (stonewort; 10 ppm, 3 months): 5; controlling effect (stonewort; 10 ppm, 21 days): 5; Reproduction-inhibiting effect (water hyacinth; 0.1%): +; Reproduction-inhibiting effect (water hyacinth; 0.2%): -; Reproduction-inhibiting effect (yabugarashi; 0.05%): ++; Reproduction-inhibiting effect (yabugarashi; 0.1%): ±; Reproduction-inhibiting effect (yabugarashi; 0.2%): -; Reproduction-inhibiting effect (duckweed; 0.05%): +; Reproduction-inhibiting effect (duckweed; 0.1%): -; Reproduction-inhibiting effect (duckweed; 0.2%): -
CP(=O)(O)CC[C@H](N)C(=O)O [L-AMPB choline, L-2-Amino-4-methylphosphino-butanoic acid choline]	±	-	-	+	-	-	±	-	-	+	-	-	±	-	-	±	-	-	5	4	Killing index (lace shrub; 0.05%, after 3 months): 4.5; Killing index (lace shrub; 0.05%, after 30 days): 4.5; effectiveness relative to monosodium or monodiethylammonium salts of L-2-amino-4-methylphosphinobutanoic acid (weeds and shrubs): twice effective; Killing index (eulalia; 0.063%): 3.5; Killing index (chestnut): 3.5; controlling effect (stonewort; 3 ppm, 3 months): 5; controlling effect (stonewort; 3 ppm, 21 days): 5; controlling effect (stonewort; 10 ppm, 3 months): 5; controlling effect (stonewort; 10 ppm, 21 days): 5; Reproduction-inhibiting effect (water hyacinth; 0.1%): -; Reproduction-inhibiting effect (water hyacinth; 0.2%): -; Reproduction-inhibiting effect (yabugarashi; 0.05%): ±; Reproduction-inhibiting effect (yabugarashi; 0.1%): -; Reproduction-inhibiting effect (yabugarashi; 0.2%): -; Reproduction-inhibiting effect (duckweed; 0.05%): -; Reproduction-inhibiting effect (duckweed; 0.1%): -; Reproduction-inhibiting effect (duckweed; 0.2%): -
C[C@H](NC(=O)[C@H](C)NC(=O)[C@@H](N)CCP(C)(=O)O)C(=O)O [SF-1293 choline, (L-2-Amino-4-methylphosphinobutyryl)-L-alanyl-L-alanine choline]	+	±	-	++	±	-	++	-	-	++	-	-	++	±	-	+	-	-	2	3	solubility (Solubility (Table 1)): 310 mg/mL (≈ 959 mM); Killing index (eulalia; 0.125%): 4.5; controlling effect (stonewort; 3 ppm, 3 months): 5; controlling effect (stonewort; 3 ppm, 21 days): 4; controlling effect (stonewort; 10 ppm, 3 months): 5; controlling effect (stonewort; 10 ppm, 21 days): 5; Reproduction-inhibiting effect (water hyacinth; 0.1%): ±; Reproduction-inhibiting effect (water hyacinth; 0.2%): -; Reproduction-inhibiting effect (yabugarashi; 0.05%): ++; Killing index of Upperground parts (yabugarashi; 0.05%, 21 days): 3.5; Reproduction-inhibiting effect (yabugarashi; 0.1%): ±; Reproduction-inhibiting effect (yabugarashi; 0.2%): -; Reproduction-inhibiting effect (duckweed; 0.05%): +; Reproduction-inhibiting effect (duckweed; 0.1%): -; Killing index (duckweed; 0.1%, 21 days): 4.5; Reproduction-inhibiting effect (duckweed; 0.2%): -
